# Where “and” joins values, the source holds several entries; their conditions need not be identical. Equal entries are not always repeated. Records with an inconclusive call do not appear.
# Tested on: BDF1 mice, colon carcinoma 38 sc, T/C %
# Assay: NCI In Vivo Anticancer Drug Screen. Data for tumor model Colon Carcinoma 38 (subcutaneous) in B6D2F1 (BDF1) mice
# Details: endpoint: median tumor weight (est.), higher = larger tumour
# Procedure, shortened: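 Compound antitumor activity was assessed in mice carrying transplantable tumors. Survival or tumor size was recorded, and each value is the treated-group measurement divided by that of the vehicle-treated control group.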
compound,measurement,setting,value
O=C(N/N=C\c1cc(Br)cc(Br)c1O)N/N=C/c1cc(Br)cc(Br)c1O,T/C,"dose: 12.5 mg/kg/injection, schedule: Q07DX002 (ip), vehicle: saline with Tween-80",119 % of control
same,T/C,"dose: 100.0 mg/kg/injection, schedule: Q07DX002 (ip), vehicle: saline with Tween-80",90 % of control
same,T/C,"dose: 200.0 mg/kg/injection, schedule: Q07DX002 (ip), vehicle: saline with Tween-80",102 % of control
same,T/C,"dose: 400.0 mg/kg/injection, schedule: Q07DX002 (ip), vehicle: saline with Tween-80",92 % of control
CC1=CC(C)(C)Nc2ccc(CSc3ccccc3)cc21,T/C,"dose: 6.25 mg/kg/injection, schedule: Q07DX002 (ip), vehicle: DMSO",88 % of control
same,T/C,"dose: 12.5 mg/kg/injection, schedule: Q07DX002 (ip), vehicle: DMSO",86 % of control
same,T/C,"dose: 12.5 mg/kg/injection, schedule: Q07DX002 (ip), vehicle: saline + Tween-80 + alcohol",78 % of control
same,T/C,"dose: 25.0 mg/kg/injection, schedule: Q07DX002 (ip), vehicle: DMSO",76 % of control
same,T/C,"dose: 25.0 mg/kg/injection, schedule: Q07DX002 (ip), vehicle: saline + Tween-80 + alcohol",86 % of control
same,T/C,"dose: 50.0 mg/kg/injection, schedule: Q07DX002 (ip), vehicle: DMSO",67 % of control
same,T/C,"dose: 50.0 mg/kg/injection, schedule: Q07DX002 (ip), vehicle: saline + Tween-80 + alcohol",107 % of control
same,T/C,"dose: 100.0 mg/kg/injection, schedule: Q07DX002 (ip), vehicle: DMSO",59 % of control
same,T/C,"dose: 100.0 mg/kg/injection, schedule: Q07DX002 (ip), vehicle: saline + Tween-80 + alcohol",102 % of control
CCC(=O)O[C@H]1CC[C@H]2[C@@H]3CCC4=CC(=O)CC[C@]4(C)[C@H]3CC[C@]12C,T/C,"dose: 20.0 mg/kg/injection, schedule: Q07DX002 (ip), vehicle: Klucel (hydroxypropylcellulose) (HPC)",72 % of control
same,T/C,"dose: 40.0 mg/kg/injection, schedule: Q07DX002 (ip), vehicle: Klucel (hydroxypropylcellulose) (HPC)",71 % of control and 81 % of control
same,T/C,"dose: 40.0 mg/kg/injection, schedule: Q07DX002 (ip), vehicle: suspension in saline",60 % of control
same,T/C,"dose: 80.0 mg/kg/injection, schedule: Q07DX002 (ip), vehicle: suspension in saline",93 % of control
same,T/C,"dose: 160.0 mg/kg/injection, schedule: Q07DX002 (ip), vehicle: suspension in saline",86 % of control
same,T/C,"dose: 320.0 mg/kg/injection, schedule: Q07DX002 (ip), vehicle: suspension in saline",99 % of control
same,T/C,"dose: 640.0 mg/kg/injection, schedule: Q07DX002 (ip), vehicle: Klucel (hydroxypropylcellulose) (HPC)",89 % of control and 100 % of control and 101 % of control
same,T/C,"dose: 640.0 mg/kg/injection, schedule: Q07DX002 (ip), vehicle: suspension in saline",86 % of control
COc1cccc2c1C(=O)c1c(O)c3c(c(O)c1C2=O)C[C@@](O)(/C(CO)=N/NC(=O)c1ccc(Cl)c(Cl)c1)C[C@@H]3OC1CC(N)C(O)C(C)O1 (stereo partly drawn),T/C,"dose: 1.5 mg/kg/injection, schedule: Q07DX002 (ip), vehicle: saline",88 % of control
same,T/C,"dose: 3.0 mg/kg/injection, schedule: Q07DX002 (ip), vehicle: saline",115 % of control
same,T/C,"dose: 6.0 mg/kg/injection, schedule: Q07DX002 (ip), vehicle: saline",80 % of control
same,T/C,"dose: 12.0 mg/kg/injection, schedule: Q07DX002 (ip), vehicle: saline",73 % of control
same,T/C,"dose: 24.0 mg/kg/injection, schedule: Q07DX002 (ip), vehicle: saline",46 % of control
same,T/C,"dose: 48.0 mg/kg/injection, schedule: Q07DX002 (ip), vehicle: saline",48 % of control
N=[N+]=CC(=O)CCC(NC(=O)C(CCC(=O)C=[N+]=N)NC(=O)CCC(N)C(=O)O)C(=O)O (stereo not drawn),T/C,"dose: 3.12 mg/kg/injection, schedule: Q07DX003 (ip), vehicle: clinical formulation",54 % of control
same,T/C,"dose: 3.12 mg/kg/injection, schedule: Q07DX003 (ip), vehicle: water",52 % of control
same,T/C,"dose: 6.25 mg/kg/injection, schedule: Q07DX003 (ip), vehicle: clinical formulation",62 % of control
same,T/C,"dose: 6.25 mg/kg/injection, schedule: Q07DX003 (ip), vehicle: water",48 % of control
same,T/C,"dose: 12.5 mg/kg/injection, schedule: Q07DX003 (ip), vehicle: clinical formulation",46 % of control
same,T/C,"dose: 12.5 mg/kg/injection, schedule: Q07DX003 (ip), vehicle: water",32 % of control
same,T/C,"dose: 25.0 mg/kg/injection, schedule: Q07DX003 (ip), vehicle: clinical formulation",40 % of control
same,T/C,"dose: 25.0 mg/kg/injection, schedule: Q07DX003 (ip), vehicle: water",44 % of control
same,T/C,"dose: 50.0 mg/kg/injection, schedule: Q07DX003 (ip), vehicle: clinical formulation",18 % of control
same,T/C,"dose: 50.0 mg/kg/injection, schedule: Q07DX003 (ip), vehicle: water",12 % of control
COC1C(/C=C/C(C)=O)OC2OC(C)(C)OC21 (stereo not drawn),T/C,"dose: 100.0 mg/kg/injection, schedule: Q07DX002 (ip), vehicle: saline",114 % of control and 98 % of control

# From PubChem BioAssay AID212 (DTP/NCI, 2004)
